Laboratory results reported in patent US11628160B2, “Compositions and methods for treating brain injury” (Azevan Pharmaceuticals, Inc., priority 2017, dated 2023).

How the values were obtained:
human V1a receptor = biological target: T1, human V1a receptor (Homo sapiens, UniProt P37288); assay: Human vasopressin V1a receptor binding assay; conditions: selectivity table; read-out: inhibition data Ki, V1a
T1 construct: host or cells: CHO cells
Procedure, shortened: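 Whole CHO cells expressing human V1a incubated with 1 nM 3H-AVP and 10-fold compound dilutions in 25 mM Hepes, 0.25% BSA, DMEM pH 7.0 for 45 min at 37 °C. Nonspecific binding with 100 nM unlabelled AVP. Cells SDS-lysed, scintillation counted; IC50 by curve fitting.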

Male Sprague Dawley rats [1] = assay: Novel Object Recognition test (momentum exchange impact model); assay type: in vivo, rat
Description: EXAMPLE. Momentum exchange impact model. This model features several advantageous translational differences over some head injury models, such as the controlled cortical impact injury model. For example, the head, neck and body can move with impact, and the velocity of head movement and energy transfer can be calculated and scaled mild to provide range from moderate to severe concussions. Studies are conducted with moderate impacts with neuroradiological evidence of contusions. Male rats are concussed twice with one day. Additional details are described in Viano et al., “Evaluation of three animal models for concussion and serious brain injury” Ann Biomed Eng. 40(1):213-26 (2012). […] Sham non-concussed test animals are given vehicle or test compound. Test animals are treated twice daily for 5 consecutive days. At two weeks post concussion cognitive behaviors are assessed, using for example, the Barnes maze and/or novel recognition models. In addition, motor behaviors are assessed, using for example, beam walk and/or rotarod tests. In each case, neuroradiological MRI is also performed.
Beginning on postnatal (P)70, animals are divided into 3 groups (n=6-7/group; Sham Control Group (Control, CG), Injury Group (IG), and Treatment Group (TG) and begin their head impact, and drug regimens. All groups are anaesthetized with 4% isoflurane in oxygen, and Injury group and Treatment group receive the first of two total head impacts) using a custom setup from Animal Imaging Research (AIR; Holden, Mass.) on P70. The day after the first impact (P71), test compound, such as AVN576, is administered to the Treatment group and the Sham Control group. In addition, a vehicle only control group (VCG) is administered saline. All administrations re administered to the Control and Treatment groups twice per day at 0700 and 1400 (IP @10 mg/kg). The drug regimen is continued over the following 4 days (5 days total). The second head impact is delivered two days following the first on P72. Two weeks post impact, animals are imaged and tested for cognitive and motor behaviors. In all evaluations made, there was not a significant difference between the sham control group (CG) receiving test compounds and vehicle-only sham control group (VCG) receiving vehicle.
EXAMPLE. Novel Object Recognition test results. This test assesses episodic learning and memory-related stimulus recognition.

Male Sprague Dawley rats [2] = assay: Resting state functional connectivity (fMRI); assay type: in vivo, rat; conditions: Treatment group
Description: EXAMPLE. Resting state functional connectivity. Resting-state fMRI scan is collected using spin-echo triple-shot EPI sequence (imaging parameters: matrix size=96×96×20, TR/TE=3000/15 msec, voxel size=[…], slice thickness=1 mm. Preprocessing is illustratively accomplished by combining Analysis of Functional NeuroImages (AFNI_17.1.12, http://afni.nimh.nih.gov/afni/), FMRIB Software library (FSL, v5.0.9, http://fsl.fmrib.ox.ac.uk/fsl/), Deformable Registration via Attribute Matching and Mutual-Saliency Weighting (DRAMMS 1.4.1, https://www.cbica.upenn.edu/sbia/software/dramms/index.html) and MATLAB (Mathworks, Natick, Mass.). Brain tissue masks for resting-state functional images are manually drawn using 3DSlicer (https://www.slicer.org/) and applied for skull-stripping. Normalization is completed by registering functional data to the MRI Rat Brain Template (Ekam Solutions LLC, Boston, Mass.) using affine registration through DRAMMS. The region-to-region functional connectivity method is illustratively performed to measure the correlations in spontaneous BOLD fluctuations. A network is comprised of nodes and edges; nodes being the brain region of interest (ROI) and edges being the connections between regions. Nodes are defined using the ROIs segmented from an appropriate MRI RAT Brain Atlas. Illustratively, 171 nodes are defined. Voxel time series data are averaged in each node based on the residual images using the nuisance regression procedure. Pearson's correlation coefficients across all pairs of nodes (14535 pairs for 171 nodes) are computed for each subject among all three groups to assess the interregional temporal correlations. The r-values (ranging from −1 to 1) are z-transformed using the Fisher's Z transform to improve normality. For 171 nodes, 171×171 symmetric connectivity matrices are constructed with each entry representing the strength of edge. Group-level analysis is performed to look at the functional connectivity in controls, one hit and three hit groups. The resulting Z-score matrices from one-group t-tests are clustered using the K-nearest neighbors clustering method to identify how nodes cluster together and form resting state networks. A Z-score threshold of |Z|=2.3 is applied to remove spurious or weak node connections for visualization purposes.
Beginning on postnatal (P)70, animals are divided into 3 groups (n=6-7/group; Sham Control Group (Control, CG), Injury Group (IG), and Treatment Group (TG) and begin their head impact, and drug regimens. All groups are anaesthetized with 4% isoflurane in oxygen, and Injury group and Treatment group receive the first of two total head impacts) using a custom setup from Animal Imaging Research (AIR; Holden, Mass.) on P70. […]

T1 sequence (P37288 whole entry): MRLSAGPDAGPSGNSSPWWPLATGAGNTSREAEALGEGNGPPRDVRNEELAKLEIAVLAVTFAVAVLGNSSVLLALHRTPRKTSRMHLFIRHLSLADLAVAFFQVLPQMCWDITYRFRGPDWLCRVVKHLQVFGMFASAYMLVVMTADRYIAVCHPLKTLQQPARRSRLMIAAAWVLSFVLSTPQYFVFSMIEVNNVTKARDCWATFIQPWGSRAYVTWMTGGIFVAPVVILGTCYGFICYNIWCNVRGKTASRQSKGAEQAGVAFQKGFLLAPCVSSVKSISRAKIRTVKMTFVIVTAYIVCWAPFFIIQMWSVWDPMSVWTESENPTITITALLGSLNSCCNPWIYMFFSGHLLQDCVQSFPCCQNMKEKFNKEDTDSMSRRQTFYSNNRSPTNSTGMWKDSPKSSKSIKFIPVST

Ki (human V1a receptor): 1.1 nM
Compound: C[C@@H](NC(=O)[C@@H](CC(=O)N1CCC(N2CCCCC2)CC1)N1C(=O)[C@@H](N2C(=O)OC[C@@H]2c2ccccc2)[C@H]1/C=C/c1cccc(I)c1)c1ccccc1 [Example 266]
percentage of time with the novel object compared to the Injury group (Male Sprague Dawley rats [1]; Treatment group P=0.003): significantly longer percentage of time | total time with the novel object compared to the Injury group (Male Sprague Dawley rats [1]; Treatment group P=0.02): significantly more total time | exploration index (exploration instances) compared to the Injury group (Male Sprague Dawley rats [1]; Treatment group P=0.06): only a trend towards significance | time investigating the novel object (recognition index) compared to chance (Male Sprague Dawley rats [1]; Treatment group, t(5)=2.61, p<0.05, IP 10 mg/kg twice daily 5 days): significantly greater than a chance amount of time | connectivity of hippocampus, Area M (Male Sprague Dawley rats [2]): hyperconnectivity compared to Injury group and Control group | connectivity of ventral hippocampus, Area G (Male Sprague Dawley rats [2]): hyperconnectivity compared to Injury group and Control group | functional connectivity in network circuitry associated with learning, cognition, memory, and attention (Male Sprague Dawley rats [2]; even compared to Control group): enhanced functional connectivity | resting state functional connectivity network (Male Sprague Dawley rats [2]; 166 brain areas): hyperconnectivity
